From US11970493B2, “Autotaxin inhibitor compounds” (ILDONG PHARMACEUTICAL CO., LTD., priority 2020, dated 2024)
Where a name gives a salt, the structure may show the parent alone.

Target: hATX/ENPP2 (Homo sapiens, UniProt Q13822)
Test: hATX/ENPP2 biochemical assay using 16:0-LPC as substrate (Amplex Red/choline oxidase/HRP fluorescence)
Conditions: hENPP2 2.5 nM, LPC (16:0) substrate
Outline: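 Enzyme preincubated with compounds 15 min at room temperature in 50 mM Tris-HCl pH 8.0, 140 mM NaCl, 5 mM CaCl2, 0.01% Triton X-100. Reaction started with 80 μM LPC (16:0) stock plus Amplex Red/choline oxidase/HRP mix; fluorescence (ex 530/em 590 nm) read kinetically. IC50 from slope between 60 and 70 min.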

IC50 [nM]	Compound
20 to 200	CCc1nc2ccc(-c3cnc(N4CC(NC(=O)[C@@H]5C[C@H](O)CN5)C4)nc3)cn2c1N(C)c1nc(-c2ccc(F)cc2)c(C#N)s1 [Compound 24, (2S,4S)—N-(1-(5-(3-((5-cyano-4-(4-fluorophenyl)thiazol-2-yl)(methyl)amino)-2-ethylimidazo[1,2-a]pyridin-6-yl)pyrimidin-2-yl)azetidin-3-yl)-4-hydroxy pyrrolidine-2-carboxamide]
≤ 20	CCc1nc2ccc(-c3cnc(N4CCN(C(=O)C5CNC5)CC4)nc3)cn2c1N(C)c1nc(-c2ccc(F)cc2)c(C#N)s1 [Compound 9, 2-((6-(2-(4-(azetidine-3-carbonyl)piperazin-1-yl)pyrimidin-5-yl)-2-ethylimidazo[1,2-a]pyridin-3-yl)(methyl)amino)-4-(4-fluorophenyl)thiazole-5-carbonitrile]
20 to 200	CCc1nc2ccc(-c3cnc(N4CCC(NC5CCC5)CC4)nc3)cn2c1N(C)c1nc(-c2ccc(F)cc2)c(C#N)s1 [Compound 108, 2-((6-(2-(4-(cyclobutylamino)piperidin-1-yl)pyrimidin-5-yl)-2-ethylimidazo[1,2-a]pyridin-3-yl)(methyl)amino)-4-(4-fluorophenyl)thiazole-5-carbonitrile]
20 to 200	CCc1nc2ccc(-c3cnc(CC(=O)N4CCOCC4)nc3)cn2c1N(C)c1nc(-c2ccc(F)cc2)c(C#N)s1 [Compound 59, 2-((2-ethyl-6-(2-(2-morpholino-2-oxoethyl)pyrimidin-5-yl)imidazo[1,2-a]pyridin-3-yl)(methyl)amino)-4-(4-fluorophenyl)thiazole-5-carbonitrile]
20 to 200	CCc1nc2ccc(-c3cnc(N4CCN(C(=O)C5CN(C6CC6)C5)CC4)nc3)cn2c1N(C)c1nc(-c2ccc(F)cc2)c(C#N)s1 [Compound 111, 2-((6-(2-(4-(1-cyclopropylazetidine-3-carbonyl)piperazin-1-yl)pyrimidin-5-yl)-2-ethylimidazo[1,2-a]pyridin-3-yl)(methyl)amino)-4-(4-fluorophenyl)thiazole-5-carbonitrile]
20 to 200	CCc1nc2ccc(-c3cnc(C(=O)NC4CCNCC4)nc3)cn2c1N(C)c1nc(-c2ccc(F)cc2)c(C#N)s1 [Compound 51, 5-(3-((5-cyano-4-(4-fluorophenyl)thiazol-2-yl) (methyl)amino)-2-ethylimidazo[1,2-a]pyridin-6-yl)-N-(piperidin-4-yl)pyrimidine-2-carboxamide]
20 to 200	CCc1nc2ccc(-c3cnc(N4CCN(C(=O)C5CC5)CC4)nc3)cn2c1N(C)c1nc(-c2ccc(F)cc2)c(C#N)s1 [Compound 110, 2-((6-(2-(4-(cyclopropanecarbonyl)piperazin-1-yl)pyrimidin-5-yl)-2-ethylimidazo[1,2-a]pyridin-3-yl)(methyl)amino)-4-(4-fluorophenyl) thiazole-5-carbonitrile]
> 200	CCc1nc2ccc(-c3cnc(NC4CCNCC4)nc3)cn2c1N(C)c1nc(-c2ccc(F)cc2)c(C#N)s1 [Compound 22, 2-((2-ethyl-6-(2-(piperidin-4-ylamino)pyrimidin-5-yl)imidazo[1,2-a]pyridin-3-yl)(methyl)amino)-4-(4-fluorophenyl)thiazole-5-carbonitrile]
20 to 200	CCc1nc2ccc(-c3cnc(N4CC(NC5CC5)C4)nc3)cn2c1N(C)c1nc(-c2ccc(F)cc2)c(C#N)s1 [Compound 105, 2-((6-(2-(3-(cyclopropylamino)azetidin-1-yl)pyrimidin-5-yl)-2-ethylimidazo[1,2-a]pyridin-3-yl)(methyl)amino)-4-(4-fluorophenyl)thiazole-5-carbonitrile]
≤ 20	CCc1nc2ccc(-c3cnc(N4CCC(NC(=O)[C@@H]5C[C@H](O)CN5)CC4)nc3)cn2c1N(C)c1nc(-c2ccc(F)cc2)c(C#N)s1 [Compound 75, (2S,4S)—N-(1-(5-(3-((5-cyano-4-(4-fluorophenyl)thiazol-2-yl)(methyl)amino)-2-ethylimidazo[1,2-a]pyridin-6-yl)pyrimidin-2-yl)piperidin-4-yl)-4-hydroxypyrrolidine-2-carboxamide]
20 to 200	CCc1nc2ccc(-c3cnc(C(=O)N4CCC(O)CC4)nc3)cn2c1N(C)c1nc(-c2ccc(F)cc2)c(C#N)s1 [Compound 15, 2-((2-ethyl-6-(2-(4-hydroxypiperidine-1-carbonyl)pyrimidin-5-yl)imidazo[1,2-a]pyridin-3-yl)(methyl)amino)-4-(4-fluorophenyl)thiazole-5-carbonitrile]
20 to 200	CCc1nc2ccc(-c3cnc(N4CC(NC5CNC5)C4)nc3)cn2c1N(C)c1nc(-c2ccc(F)cc2)c(C#N)s1 [Compound 27, 2-((6-(2-(3-(azetidin-3-ylamino)azetidin-1-yl)pyrimidin-5-yl)-2-ethylimidazo[1,2-a]pyridin-3-yl)(methyl)amino)-4-(4-fluorophenyl)thiazole-5-carbonitrile]
20 to 200	CCc1nc2ccc(-c3cnc(NC4CCN(C(=O)C5(O)CC5)CC4)nc3)cn2c1N(C)c1nc(-c2ccc(F)cc2)c(C#N)s1 [Compound 21, 2-((2-ethyl-6-(2-((1-(1-hydroxycyclopropane-1-carbonyl)piperidin-4-yl)amino)pyrimidin-5-yl)imidazo[1,2-a]pyridin-3-yl)(methyl)amino)-4-(4-fluorophenyl) thiazole-5-carbonitrile]
20 to 200	CCc1nc2ccc(-c3cnc(N4CC(C(=O)NC5CNC5)C4)nc3)cn2c1N(C)c1nc(-c2ccc(F)cc2)c(C#N)s1 [70 (hydrochloride salt), N-(azetidin-3-yl)-1-(5-(3-((5-cyano-4-(4-fluorophenyl)thiazol-2-yl)(methyl)amino)-2-ethylimidazo[1,2-a]pyridin-6-yl)pyrimidin-2-vl) azetidine-3-carboxamide hydrochloride]
20 to 200	CCc1nc2ccc(-c3cnc(NC4CN(C(=O)C5CNC5)C4)nc3)cn2c1N(C)c1nc(-c2ccc(F)cc2)c(C#N)s1 [Compound 36, 2-((6-(2-((1-(azetidine-3-carbonyl)azetidin-3-yl)amino)pyrimidin-5-yl)-2-ethylimidazo[1,2-a]pyridin-3-yl)(methyl)amino)-4-(4-fluorophenyl) thiazole-5-carbonitrile]
20 to 200	CCc1nc2ccc(-c3cnc(N4CCNCC4)nc3)cn2c1N(C)c1nc(-c2ccc(F)cc2)c(C#N)s1 [Compound 4, 2-((2-ethyl-6-(2-(piperazin-1-yl)pyrimidin-5-yl)imidazo[1,2-a]pyridin-3-yl)(methyl)amino)-4-(4-fluorophenyl)thiazole-5-carbonitrile]
≤ 20	CCc1nc2ccc(-c3cnc(N4CCN(C(=O)[C@H]5C[C@H](O)CN5)CC4)nc3)cn2c1N(C)c1nc(-c2ccc(F)cc2)c(C#N)s1 [Compound 8, 2-((2-ethyl-6-(2-(4-((2R,4S)-4-hydroxypyrrolidine-2-carbonyl)piperazin-1-yl)pyrimidin-5-yl)imidazo[1,2-a]pyridin-3-yl)(methyl)amino)-4-(4-fluorophenyl)thiazole-5-carbonitrile]
≤ 20	CCc1nc2ccc(-c3cnc(N4CCC(NC(=O)C5CCNCC5)CC4)nc3)cn2c1N(C)c1nc(-c2ccc(F)cc2)c(C#N)s1 [Compound 84, N-(1-(5-(3-((5-cyano-4-(4-fluorophenyl)thiazol-2-yl)(methyl)amino)-2-ethylimidazo[1,2-a]pyridin-6-yl)pyrimidin-2-yl)piperidin-4-yl)piperidine-4-carboxamide]
20 to 200	CCc1nc2ccc(-c3cnc(N4CCC(NC5CC5)CC4)nc3)cn2c1N(C)c1nc(-c2ccc(F)cc2)c(C#N)s1 [Compound 107, 2-((6-(2-(4-(cyclopropylamino)piperidin-1-yl)pyrimidin-5-yl)-2-ethylimidazo[1,2-a]pyridin-3-yl)(methyl)amino)-4-(4-fluorophenyl)thiazole-5-carbonitrile]
20 to 200	CCc1nc2ccc(-c3cnc(C4CCN(C(=O)N5CCC5)CC4)nc3)cn2c1N(C)c1nc(-c2ccc(F)cc2)c(C#N)s1 [Compound 101, 2-((6-(2-(1-(azetidine-1-carbonyl)piperidin-4-yl)pyrimidin-5-yl)-2-ethylimidazo[1,2-a]pyridin-3-yl)(methyl)amino)-4-(4-fluorophenyl)thiazole-5-carbonitrile]
20 to 200	CCc1nc2ccc(-c3cnc(N4CC(NC(=O)[C@H]5C[C@H](O)CN5)C4)nc3)cn2c1N(C)c1nc(-c2ccc(F)cc2)c(C#N)s1 [Compound 23, (2R,4S)—N-(1-(5-(3-((5-cyano-4-(4-fluorophenyl)thiazol-2-yl)(methyl)amino)-2-ethylimidazo[1,2-a]pyridin-6-yl)pyrimidin-2-yl)azetidin-3-yl)-4-hydroxypyrrolidine-2-carboxamide]
> 200	CCc1nc2ccc(-c3cnc(CC(=O)NC4CNC4)nc3)cn2c1N(C)c1nc(-c2ccc(F)cc2)c(C#N)s1 [Compound 63, N-(azetidin-3-yl)-2-(5-(3-((5-cyano-4-(4-fluorophenyl)thiazol-2-yl)(methyl)amino)-2-ethylimidazo[1,2-a]pyridin-6-yl)pyrimidin-2-yl)acetamide]
≤ 20	CCc1nc2ccc(-c3ccc(N4CCC(NC5CNC5)CC4)nc3)cn2c1N(C)c1nc(-c2ccc(F)cc2)c(C#N)s1 [Compound 89 hydrochloride, 2-((6-(6-(4-(azetidin-3-ylamino)piperidin-1-yl)pyridin-3-yl)-2-ethylimidazo[1,2-a]pyridin-3-yl)(methyl)amino)-4-(4-fluorophenyl)thiazole-5-carbonitrile hydrochloride]
20 to 200	CCc1nc2ccc(-c3cnc(C(=O)NC4(C#N)CC4)nc3)cn2c1N(C)c1nc(-c2ccc(F)cc2)c(C#N)s1 [Compound 16, 5-(3-((5-cyano-4-(4-fluorophenyl)thiazol-2-yl)(methyl)amino)-2-ethylimidazo[1,2-a]pyridin-6-yl)-N-(1-cyanocyclopropyl)pyrimidine-2-carboxamide]
